Data as given in PubChem BioAssay (NCI).
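Tested at 5 concentrations; 48 h exposure; 96-well plates; endpoints linearly interpolated, else capped at highest concentration. The concentration for full growth arrest is given as TGI.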

Tests used:
Assay in all cases: NCI anticancer screen, dose series, 48 h
EKVX NSCLC = system: EKVX NSCLC
T-47D breast = system: T-47D breast
U251 CNS = system: U251 CNS
CAKI-1 renal = system: CAKI-1 renal
OVCAR-4 ovarian = system: OVCAR-4 ovarian
RPMI-8226 leukemia = system: RPMI-8226 leukemia
786-0 renal = system: 786-0 renal
DU-145 prostate = system: DU-145 prostate
M14 melanoma = system: M14 melanoma
SK-MEL-2 melanoma = system: SK-MEL-2 melanoma
MDA-MB-435 = system: MDA-MB-435
SW-620 colon = system: SW-620 colon
UO-31 renal = system: UO-31 renal
CCRF-CEM leukemia = system: CCRF-CEM leukemia
A498 renal = system: A498 renal
TK-10 renal = system: TK-10 renal
NCI-H460 lung = system: NCI-H460 lung
UACC-62 melanoma = system: UACC-62 melanoma
SF-539 CNS = system: SF-539 CNS
SNB-19 CNS = system: SNB-19 CNS
MDA-MB-231 breast = system: MDA-MB-231 breast
IGROV1 ovarian = system: IGROV1 ovarian
SK-OV-3 ovarian = system: SK-OV-3 ovarian
SF-268 CNS = system: SF-268 CNS
SNB-75 CNS = system: SNB-75 CNS
LOX IMVI melanoma = system: LOX IMVI melanoma
K-562 leukemia = system: K-562 leukemia
HCT-15 colon = system: HCT-15 colon
HL-60(TB) leukemia = system: HL-60(TB) leukemia
NCI-H23 lung = system: NCI-H23 lung
OVCAR-8 ovarian = system: OVCAR-8 ovarian
KM12 colon = system: KM12 colon
SK-MEL-28 melanoma = system: SK-MEL-28 melanoma
OVCAR-5 ovarian = system: OVCAR-5 ovarian
BT-549 breast = system: BT-549 breast
MDA-N = system: MDA-N
MALME-3M melanoma = system: MALME-3M melanoma
MOLT-4 leukemia = system: MOLT-4 leukemia
COLO 205 colon = system: COLO 205 colon
HS 578T breast = system: HS 578T breast
NCI-H522 lung = system: NCI-H522 lung
HCC-2998 colon = system: HCC-2998 colon
ACHN renal = system: ACHN renal
HCT-116 colon = system: HCT-116 colon
OVCAR-3 ovarian = system: OVCAR-3 ovarian
SR leukemia = system: SR leukemia
MCF7 breast = system: MCF7 breast
SN12C renal = system: SN12C renal
UACC-257 melanoma = system: UACC-257 melanoma
NCI/ADR-RES ovarian = system: NCI/ADR-RES ovarian
A549 NSCLC = system: A549 NSCLC
HOP-92 NSCLC = system: HOP-92 NSCLC
PC-3 prostate = system: PC-3 prostate
RXF 393 renal = system: RXF 393 renal
HOP-62 NSCLC = system: HOP-62 NSCLC
HT29 colon = system: HT29 colon
SF-295 CNS = system: SF-295 CNS
SK-MEL-5 melanoma = system: SK-MEL-5 melanoma
NCI-H226 lung = system: NCI-H226 lung

Compound: COC(=O)CCCC(=O)NC1=C(NCc2ccccc2)C(=O)c2ccccc2C1=O
- TGI (EKVX NSCLC): > 100 µM
- TGI (T-47D breast): > 100 µM
- TGI (U251 CNS): > 100 µM
- TGI (CAKI-1 renal): > 100 µM
- TGI (OVCAR-4 ovarian): > 100 µM
- TGI (RPMI-8226 leukemia): > 100 µM
- TGI (786-0 renal): > 100 µM
- TGI (DU-145 prostate): > 100 µM
- TGI (M14 melanoma): > 100 µM
- TGI (SK-MEL-2 melanoma): > 100 µM
- TGI (MDA-MB-435): > 100 µM
- TGI (SW-620 colon): > 100 µM
- TGI (UO-31 renal): > 100 µM
- TGI (CCRF-CEM leukemia): > 100 µM
- TGI (A498 renal): > 100 µM
- TGI (TK-10 renal): > 100 µM
- TGI (NCI-H460 lung): > 100 µM
- TGI (UACC-62 melanoma): > 100 µM
- TGI (SF-539 CNS): > 100 µM
- TGI (SNB-19 CNS): > 100 µM
- TGI (MDA-MB-231 breast): > 100 µM
- TGI (IGROV1 ovarian): > 100 µM
- TGI (SK-OV-3 ovarian): > 100 µM
- TGI (SF-268 CNS): > 100 µM
- TGI (SNB-75 CNS): > 100 µM
- TGI (LOX IMVI melanoma): > 100 µM
- TGI (K-562 leukemia): > 100 µM
- TGI (HCT-15 colon): > 100 µM
- TGI (HL-60(TB) leukemia): 77.3 µM
- TGI (NCI-H23 lung): > 100 µM
- TGI (OVCAR-8 ovarian): > 100 µM
- TGI (KM12 colon): > 100 µM
- TGI (SK-MEL-28 melanoma): > 100 µM
- TGI (OVCAR-5 ovarian): > 100 µM
- TGI (BT-549 breast): 93.8 µM
- TGI (MDA-N): > 100 µM
- TGI (MALME-3M melanoma): 37.7 µM
- TGI (MOLT-4 leukemia): > 100 µM
- TGI (COLO 205 colon): > 100 µM
- TGI (HS 578T breast): > 100 µM
- TGI (NCI-H522 lung): > 100 µM
- TGI (HCC-2998 colon): > 100 µM
- TGI (ACHN renal): > 100 µM
- TGI (HCT-116 colon): > 100 µM
- TGI (OVCAR-3 ovarian): 90.6 µM
- TGI (SR leukemia): > 100 µM
- TGI (MCF7 breast): > 100 µM
- TGI (SN12C renal): > 100 µM
- TGI (UACC-257 melanoma): 89.7 µM
- TGI (NCI/ADR-RES ovarian): > 100 µM
- TGI (A549 NSCLC): > 100 µM

Compound: N#Cc1nc(C#N)n(C(=O)c2ccccc2)c1NC(=O)c1ccccc1
- TGI (EKVX NSCLC): > 100 µM
- TGI (T-47D breast): > 100 µM
- TGI (U251 CNS): > 100 µM
- TGI (CAKI-1 renal): > 100 µM
- TGI (OVCAR-4 ovarian): > 100 µM
- TGI (RPMI-8226 leukemia): > 100 µM
- TGI (786-0 renal): > 100 µM
- TGI (HOP-92 NSCLC): > 100 µM
- TGI (DU-145 prostate): > 100 µM
- TGI (PC-3 prostate): > 100 µM
- TGI (M14 melanoma): > 100 µM
- TGI (SK-MEL-2 melanoma): > 100 µM
- TGI (MDA-MB-435): > 100 µM
- TGI (SW-620 colon): > 100 µM
- TGI (UO-31 renal): > 100 µM
- TGI (CCRF-CEM leukemia): > 100 µM
- TGI (RXF 393 renal): > 100 µM
- TGI (HOP-62 NSCLC): > 100 µM
- TGI (A498 renal): > 100 µM
- TGI (TK-10 renal): > 100 µM
- TGI (NCI-H460 lung): > 100 µM
- TGI (HT29 colon): > 100 µM
- TGI (UACC-62 melanoma): > 100 µM
- TGI (SF-539 CNS): > 100 µM
- TGI (SNB-19 CNS): > 100 µM
- TGI (MDA-MB-231 breast): > 100 µM
- TGI (IGROV1 ovarian): > 100 µM
- TGI (SK-OV-3 ovarian): > 100 µM
- TGI (SF-268 CNS): > 100 µM
- TGI (SNB-75 CNS): > 100 µM
- TGI (LOX IMVI melanoma): > 100 µM
- TGI (K-562 leukemia): > 100 µM
- TGI (HCT-15 colon): > 100 µM
- TGI (HL-60(TB) leukemia): > 100 µM
- TGI (NCI-H23 lung): > 100 µM
- TGI (OVCAR-8 ovarian): > 100 µM
- TGI (KM12 colon): > 100 µM
- TGI (SK-MEL-28 melanoma): > 100 µM
- TGI (OVCAR-5 ovarian): > 100 µM
- TGI (BT-549 breast): > 100 µM
- TGI (MDA-N): > 100 µM
- TGI (MALME-3M melanoma): > 100 µM
- TGI (MOLT-4 leukemia): > 100 µM
- TGI (COLO 205 colon): > 100 µM
- TGI (HS 578T breast): > 100 µM
- TGI (NCI-H522 lung): > 100 µM
- TGI (SF-295 CNS): > 100 µM
- TGI (HCC-2998 colon): > 100 µM
- TGI (ACHN renal): > 100 µM
- TGI (HCT-116 colon): > 100 µM
- TGI (OVCAR-3 ovarian): > 100 µM
- TGI (MCF7 breast): > 100 µM
- TGI (SN12C renal): > 100 µM
- TGI (UACC-257 melanoma): > 100 µM
- TGI (NCI/ADR-RES ovarian): > 100 µM
- TGI (SK-MEL-5 melanoma): > 100 µM
- TGI (A549 NSCLC): > 100 µM
- TGI (NCI-H226 lung): > 100 µM
